Biological target: T1, Alpha-tocopherol transfer protein (Homo sapiens, UniProt P49638)
T1 sequence (P49638 whole entry): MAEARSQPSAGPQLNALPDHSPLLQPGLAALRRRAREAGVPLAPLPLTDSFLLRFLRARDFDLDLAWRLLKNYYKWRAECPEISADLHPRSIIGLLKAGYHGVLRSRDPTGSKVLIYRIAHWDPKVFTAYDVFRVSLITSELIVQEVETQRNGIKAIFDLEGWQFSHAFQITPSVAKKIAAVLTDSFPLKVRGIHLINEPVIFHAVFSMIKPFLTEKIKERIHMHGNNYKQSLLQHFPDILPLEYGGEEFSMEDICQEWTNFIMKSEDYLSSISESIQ
Assay: Binding affinity to human alpha-TTP assessed as dissociation constant incubated for 25 to 40 mins by fluorescence based assay

Kd: 94 nM
Compound: CC1=CC(C)=[N+]2C1=Cc1ccc(CCCCCCCC[C@]3(C)CCc4c(C)c(O)c(C)c(C)c4O3)n1[B-]2(F)F
